Measurements published in the supplement of paper PMC11451515.

Tested on: P12-Ichikawa
Experiment: cell viability relative to DMSO control; higher = less cytotoxic
Conditions: 48 h
How it was run: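 Cells were incubated for 48 h at 37°C before CellTiter-Glo One luminescence was read. The cells were NOMO1 or SEM (500 cells/well) or P12-Ichikawa (1000 cells/well) leukemia cells, adapted for at least four passages in each medium and seeded in 1536-well plates (5 μl). Dosing used library compounds in DMSO applied by pin over 11 threefold points, 47 μM to 0.79 nM. Viability is the per-plate percentage of DMSO wells, with cell-free wells as background.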

[1] = HPLM + 10% dialyzed FBS, 0.000781 µM
[2] = HPLM + 10% dialyzed FBS, 0.00234 µM
[3] = HPLM + 10% dialyzed FBS, 0.00702 µM
[4] = HPLM + 10% dialyzed FBS, 0.0211 µM
[5] = HPLM + 10% dialyzed FBS, 0.0632 µM
[6] = HPLM + 10% dialyzed FBS, 0.19 µM
[7] = HPLM + 10% dialyzed FBS, 0.569 µM
[8] = HPLM + 10% dialyzed FBS, 1.71 µM
[9] = HPLM + 10% dialyzed FBS, 5.12 µM
[10] = HPLM + 10% dialyzed FBS, 15.4 µM
[11] = HPLM + 10% dialyzed FBS, 46.1 µM
[12] = RPMI 5 mM glucose + 10% FBS, 0.000781 µM
[13] = RPMI 5 mM glucose + 10% FBS, 0.00234 µM
[14] = RPMI 5 mM glucose + 10% FBS, 0.00702 µM
[15] = RPMI 5 mM glucose + 10% FBS, 0.0211 µM
[16] = RPMI 5 mM glucose + 10% FBS, 0.0632 µM
[17] = RPMI 5 mM glucose + 10% FBS, 0.19 µM
[18] = RPMI 5 mM glucose + 10% FBS, 0.569 µM
[19] = RPMI 5 mM glucose + 10% FBS, 1.71 µM
[20] = RPMI 5 mM glucose + 10% FBS, 5.12 µM
[21] = RPMI 5 mM glucose + 10% FBS, 15.4 µM
[22] = RPMI 5 mM glucose + 10% FBS, 46.1 µM
[23] = RPMI 5 mM glucose + 10% dialyzed FBS, 0.000781 µM
[24] = RPMI 5 mM glucose + 10% dialyzed FBS, 0.00234 µM
[25] = RPMI 5 mM glucose + 10% dialyzed FBS, 0.00702 µM
[26] = RPMI 5 mM glucose + 10% dialyzed FBS, 0.0211 µM
[27] = RPMI 5 mM glucose + 10% dialyzed FBS, 0.0632 µM
[28] = RPMI 5 mM glucose + 10% dialyzed FBS, 0.19 µM
[29] = RPMI 5 mM glucose + 10% dialyzed FBS, 0.569 µM
[30] = RPMI 5 mM glucose + 10% dialyzed FBS, 1.71 µM
[31] = RPMI 5 mM glucose + 10% dialyzed FBS, 5.12 µM
[32] = RPMI 5 mM glucose + 10% dialyzed FBS, 15.4 µM
[33] = RPMI 5 mM glucose + 10% dialyzed FBS, 46.1 µM

| SMILES | cell viability [1] [%] | cell viability [2] [%] | cell viability [3] [%] | cell viability [4] [%] | cell viability [5] [%] | cell viability [6] [%] | cell viability [7] [%] | cell viability [8] [%] | cell viability [9] [%] | cell viability [10] [%] | cell viability [11] [%] | cell viability [12] [%] | cell viability [13] [%] | cell viability [14] [%] | cell viability [15] [%] | cell viability [16] [%] | cell viability [17] [%] | cell viability [18] [%] | cell viability [19] [%] | cell viability [20] [%] | cell viability [21] [%] | cell viability [22] [%] | cell viability [23] [%] | cell viability [24] [%] | cell viability [25] [%] | cell viability [26] [%] | cell viability [27] [%] | cell viability [28] [%] | cell viability [29] [%] | cell viability [30] [%] | cell viability [31] [%] | cell viability [32] [%] | cell viability [33] [%] |
| --- | --- | --- | --- | --- | --- | --- | --- | --- | --- | --- | --- | --- | --- | --- | --- | --- | --- | --- | --- | --- | --- | --- | --- | --- | --- | --- | --- | --- | --- | --- | --- | --- | --- |
| COc1cc2nc(-c3cc(F)ccc3O)nc(N[C@@H]3CNC[C@H]3C(C)(C)O)c2cc1OC | 104 | 104 | 106 | 110 | 110 | 109 | 114 | 120 | 80.5 | 76.6 | 56.5 | 108 | 104 | 111 | 111 | 118 | 128 | 119 | 129 | 83.5 | 67.8 | 44.3 | 116 | 123 | 117 | 113 | 121 | 116 | 124 | 115 | 69.6 | 48.5 | 37.5 |
| COc1ccc([C@@H]2CC(=O)c3c(O)cc(O[C@@H]4O[C@H](CO[C@@H]5O[C@@H](C)[C@H](O)[C@@H](O)[C@H]5O)[C@@H](O)[C@H](O)[C@H]4O)cc3O2)cc1O | 97.9 | 99 | 116 | 118 | 113 | 116 | 107 | 116 | 114 | 111 | 116 | 96.2 | 101 | 110 | 113 | 107 | 114 | 111 | 106 | 107 | 116 | 109 | 104 | 111 | 109 | 108 | 114 | 111 | 113 | 111 | 108 | 115 | 109 |
| COC1=C2C[C@@H](C)C[C@H](OC)[C@H](O)[C@@H](C)/C=C(\C)[C@H](OC(N)=O)[C@@H](OC)/C=C/C=C(\C)C(=O)NC(=CC1=O)C2=O | 114 | 106 | 116 | 109 | 107 | 113 | 98.6 | 104 | 77.4 | 48.4 | 38.6 | 106 | 109 | 108 | 112 | 108 | 108 | 102 | 90.8 | 80.5 | 51.5 | 27.2 | 116 | 117 | 114 | 111 | 108 | 111 | 108 | 94.4 | 72.2 | 34.2 | 28 |
| CCCCCCCCCC(=O)N[C@@H](Cc1c[nH]c2ccccc12)C(=O)N[C@H](CC(N)=O)C(=O)N[C@@H](CC(=O)O)C(=O)N[C@@H]1C(=O)NCC(=O)N[C@@H](CCCN)C(=O)N[C@@H](CC(=O)O)C(=O)N[C@H](C)C(=O)N[C@@H](CC(=O)O)C(=O)NCC(=O)N[C@H](CO)C(=O)N[C@@H]([C@@H](C)CC(=O)O)C(=O)N[C@@H](CC(=O)c2ccccc2N)C(=O)O[C@@H]1C | 116 | 122 | 112 | 123 | 121 | 122 | 126 | 123 | 122 | 124 | 129 | 106 | 111 | 113 | 121 | 131 | 127 | 126 | 129 | 125 | 125 | 4.51 | 106 | 111 | 110 | 113 | 133 | 116 | 117 | 126 | 121 | 131 | 115 |
| CC(C)c1cc(C(=O)N2Cc3ccc(CN4CCN(C)CC4)cc3C2)c(O)cc1O | 118 | 121 | 123 | 106 | 124 | 109 | 89.3 | 65.8 | 54.7 | 52.8 | 51.4 | 115 | 119 | 115 | 105 | 114 | 97.7 | 56.4 | 52.5 | 41.3 | 40.7 | 39.8 | 119 | 122 | 125 | 112 | 125 | 112 | 65.3 | 50 | 43.3 | 44.5 | 43.3 |
| CC(C)C[C@H](NC(=O)CNC(=O)c1cc(Cl)ccc1Cl)B(O)O | 91 | 98.3 | 99.7 | 14.2 | 106 | 78 | 6.35 | 5.51 | 4.53 | 3 | 2.23 | 78.7 | 89 | 85.8 | 11.8 | 102 | 73.1 | 6.15 | 5.14 | 4.49 | 3.12 | 1.86 | 88.7 | 88.6 | 91.2 | 21.6 | 100 | 88 | 6.52 | 5.26 | 4.56 | 2.86 | 1.63 |
| O=C(c1ccc(F)c(F)c1Nc1ccc(I)cc1F)N1CC(O)([C@@H]2CCCCN2)C1 | 93.9 | 102 | 102 | 111 | 109 | 108 | 100 | 99 | 93.6 | 12.6 | 11.1 | 97.3 | 102 | 112 | 97.8 | 101 | 104 | 87.5 | 93 | 82.7 | 12.8 | 7.93 | 88.6 | 114 | 115 | 116 | 111 | 108 | 114 | 105 | 96.2 | 36.8 | 14.8 |
| CC[C@@]1(O)C(=O)OC\C2=C1\C=C\3N(CC4=C3N=C5C=CC=CC5=C4)C2=O | 122 | 120 | 107 | 86.1 | 13.3 | 10.1 | 7.26 | 5.09 | 4.83 | 3.78 | 5.54 | 115 | 113 | 116 | 69.9 | 10.9 | 7.97 | 6.35 | 4.58 | 3.68 | 3.91 | 6.1 | 115 | 115 | 107 | 59.8 | 16.8 | 9.84 | 7.6 | 5.62 | 4.44 | 4.32 | 6.06 |
| COc1ncnc(N[S+](=O)([O-])c2ccc(N)cc2)c1OC | 113 | 117 | 116 | 112 | 109 | 92.6 | 79.8 | 72 | 25.8 | 22.2 | 27 | 115 | 111 | 116 | 124 | 101 | 85.3 | 73.3 | 59.3 | 43.8 | 12.9 | 11.6 | 108 | 116 | 113 | 103 | 97.1 | 86.3 | 66.6 | 53.8 | 39.4 | 18.7 | 14.8 |
| CN[C@@H](C)C(=O)N[C@H]1CN(C(=O)CC(C)C)CC[C@H]2CC[C@@H](C(=O)NC(c3ccccc3)c3ccccc3)N2C1=O | 98.3 | 104 | 107 | 111 | 110 | 102 | 103 | 100 | 96.7 | 14.8 | 10.2 | 96.8 | 110 | 109 | 111 | 114 | 112 | 112 | 108 | 87.3 | 18.1 | 10.2 | 90.1 | 113 | 101 | 115 | 105 | 111 | 112 | 107 | 97.8 | 43.3 | 16.1 |
| CC(C)c1ccc(Cn2ccc3c4c(N)nc(NC5CC5)nc4ccc32)cc1 | 110 | 116 | 119 | 84 | 116 | 100 | 83.4 | 65.6 | 32.7 | 26.7 | 2.54 | 118 | 123 | 127 | 84.8 | 126 | 133 | 133 | 114 | 52.2 | 51.5 | 2.24 | 118 | 124 | 122 | 86.4 | 139 | 126 | 132 | 85.5 | 36.5 | 32.1 | 2.44 |
| CNCc1ccc(-c2[nH]c3cc(F)cc4c3c2CCNC4=O)cc1 | 109 | 124 | 121 | 121 | 124 | 126 | 130 | 119 | 122 | 123 | 119 |  |  |  |  |  |  |  |  |  |  |  |  |  |  |  |  |  |  |  |  |  |  |
| CC1(N2CCC(n3c([C@@H]4CCCNC4)nc4ccccc43)CC2)CCCCCCC1 | 101 | 95.4 | 106 | 111 | 113 | 115 | 113 | 115 | 108 | 88 | 55.6 | 98.3 | 95 | 104 | 115 | 110 | 111 | 124 | 118 | 110 | 86.9 | 67.9 | 97.1 | 101 | 104 | 115 | 112 | 107 | 110 | 109 | 109 | 81.7 | 65.9 |
| C[S+](=O)([O-])c1ccc(-c2cnc(N)c(C(=O)Nc3ccccc3)n2)cc1 | 99.6 | 104 | 107 | 107 | 117 | 119 | 118 | 118 | 114 | 88.4 | 87.2 | 103 | 119 | 111 | 112 | 123 | 122 | 116 | 121 | 114 | 76.9 | 80.5 | 104 | 117 | 120 | 120 | 121 | 115 | 124 | 114 | 117 | 72.6 | 69.7 |
| COC1=CC=C(C=C1O)C/2=C/C(=O)C3=C(O2)C=C(O)C=C3O | 96.2 | 95.5 | 96.4 | 97 | 95.2 | 90.3 | 86.4 | 90.8 | 86.7 | 91.9 | 88.4 | 98 | 92.1 | 95.3 | 98.9 | 104 | 92.5 | 90.4 | 87.5 | 87.3 | 91.3 | 89.9 | 86.8 | 83.9 | 81.7 | 76.9 | 78.1 | 76.5 | 77.9 | 79.5 | 79.5 | 80.7 | 80.7 |
